“Also recorded” adds a separate entry of the source.
Columns and labels:
[1] = target: T1, integrin αvβ3 in its active conformation (Homo sapiens, UniProt P05106+P06756); test: Specificity of WOW-1 antibody for active integrin αvβ3 in control fibroblasts by flow cytometry; format: cell-based; conditions: 10 mM EDTA, 2 mM MnCl2
T1 construct: endogenous in cells; host or cells: control fibroblasts (read as primary human dermal fibroblasts from healthy controls)
Procedure: For histograms, FlowJo software divides all events into 256 “bins,” which are numerical ranges for the parameter on the x-axis. The percent of maximum (yaxis) is the number of cells in each bin divided by the number of cells in the bin that contains the largest number of cells. Gating for live cells was based on staining with the LIVE/DEAD® Fixable Dead Cell Stain Kit (Invitrogen, cat#L34955). All staining was performed with fluorophore-conjugated primary and isotype control antibodies. All antibodies were either purchased as fluorochrome conjugates or conjugated via amine-based Alexa Fluor antibody labeling kits (cat#A-20181, A20187, A-20185, A-20186, Invitrogen). Mouse and human active αvβ3 was detected fluorophore-conjugated WOW-1 antibody (a gift from Dr. Sanford Shattil). 10 mM Ethylenediaminetetraacetic acid (EDTA) and 2 mM MnCl2 were used as negative and positive controls for αvβ3 activation in flow cytometry experiments (FIG. 20B). Integrin αvβ5, a subtype known to react with the WOW-1 antibody, was monitored in mouse and human cells with a specific antibody (cat#LS-C36943, Lifespan Biosciences).

[2] = tested on: Fbn1D1545E/+ and Fbn1W1572C/+ mice (SSS mouse models); test: In vivo drug treatment of SSS mouse models: clinical stiffness score and stretched skin area/total surface area ratio; conditions: RDEA119 25 mg/kg twice daily by oral gavage, 8 weeks from 1 month of age
Procedure: (§1) All antibodies used to treat mice or cells were azide-free. Male mice were treated with β1 integrin activating antibody (β1aAb, Rat Clone 9EG7, BD Biosciences, special-ordered >98% pure and azide-free) or an isotype-matched control (Rat IgG2a, κ, special-ordered >98% pure and azide-free, BD Biosciences) by intraperitoneal injection at 2 mg/kg every five days for twelve weeks, beginning at one month of age. Complete blood cell counts were performed to exclude pancytopenia in β1aAb-treated animals (FIG. 20A). For the TGFβ-Neutralizing trial, three-month-old male mice were treated with pan-specific TGFβ-Neutralizing antibody (Mouse Clone 1D11, catalog #MAB1835, R&D) or an isotype control (Mouse IgG1, Clone 11711, cat#MAB002, R&D) by intraperitoneal injection at 10 mg/kg every other day for twelve weeks.
RDEA119 was generously provided by Craig J. Thomas, Samarjit Patnaik, and Juan J. Marugan (National Institutes of Health Chemical Genomics Center, Rockville, Md., USA). RDEA119 was reconstituted in 10% 2-hydroxypropyl-betacyclodextrin (Sigma-Aldrich) dissolved in PBS, and administered twice daily by oral gavage at a dose of 25 mg/kg. […]
A clinical stiffness score was assigned by five blinded observers. […] Mice were assessed in random order. […] Early in the course of studies, the same mice were assessed by the same observer on a different day. […]

[3] = tested on: Fbn1D1545E/+ and Fbn1W1572C/+ mice (SSS mouse models); test: Histology (Masson's trichrome) and immunofluorescence of back skin of treated SSS mice; format: in vivo; conditions: RDEA119 25 mg/kg twice daily oral gavage, 8 weeks
Procedure: as §1
RDEA119 was generously provided by Craig J. Thomas, Samarjit Patnaik, and Juan J. Marugan (National Institutes of Health Chemical Genomics Center, Rockville, Md., USA). […]
For tissue analysis, animals were euthanized through inhalational halothane (Sigma) or anesthetized with isofluorane. […] Dermal and subcutaneous fat thickness was measured using high-powered fields as described previously. […] Active αvβ3 was detected using the WOW-1 antibody (a gift from Dr. Sanford Shattil) and an anti-mouse Alexa Fluor-594 F(ab′)2 fragment secondary (Invitrogen cat#A11020). […]

SSc fibroblasts [4] = test: qPCR of miR-29a and collagen mRNAs in cultured SSc fibroblasts; format: cell-based, human; conditions: inhibitors SD208 (1 μM), U0126 (10 μM)
Procedure: Primary human dermal fibroblasts (HDFs) were derived from skin biopsies from 5 patients with active diffuse systemic sclerosis and 6 healthy controls. Biopsies were taken from the forearm and cultured as previously described. All experiments were performed in cell lines at low (<5) passage. Primary mouse embryonic fibroblasts (MEFs) were derived from E13.5 embryos as described previously. Murine plasmacytoid dendritic cells (pDCs) were isolated from the spleens of wild-type C57B16/J mice using the Plasmacytoid Dendritic Cell Isolation Kit II (cat#130-092-786, Miltenyi Biotec) and a midiMACS™ Separator (cat#130-042-302, Miltenyi Biotec) according to the manufacturer's instructions. The pDC-containing cell suspensions routinely had greater than 95% purity, as detected by flow cytometry.
(§2) All cells were counted at splitting and all treatments were performed at 70% confluency. Cells were serum starved 48 hours prior to stimulation with 2 ng/mL recombinant TGFβ1 (cat#240-B-010, R&D). When TGFβ1 or vehicle was added, cell culture dishes were immediately rocked on the same rocker three times at 5% CO2, 37° to control for mechanical MAPK activation. Before lysate harvest, cells were washed with pre-warmed (42°) 1×PBS (Gibco®). All antibody treatments of human fibroblasts were added during starvation 48 hours before TGFβ1 stimulation while inhibitors SD208 (1 μM) and UO126 (10 μM) (cat#s 616456 and 662005, EMD Millipore) were added 6 hours prior to stimulation. Antibodies used in vitro were mouse IgG1 (0.2 mg/mL, Clone P3.6.2.8.1, cat#16-4714-81, eBiosciences), IgG2a (0.2 mg/mL, Clone eBM2a, cat#16-4724, eBiosciences), αvβ3-blocking (30 μg/mL, Clone LM609, cat#MAB1976Z, Millipore), β1-activating (7 μg/mL, Clone TS2/16, cat#14-0299, eBiosciences), and β1-blocking (0.2 mg/mL, Clone P4C10, cat#MAB1987Z, Millipore) antibodies.
Total RNA was isolated from cultured cells or tissue using Trizol (Invitrogen) according to the manufacturer's protocol. Quantitative PCR for miR-29a and 18S rRNA was performed using pre-designed Taqman primers and probes (ABI) according to manufacturer's instructions. Relative quantification for each transcript was obtained by normalizing against 18S transcript abundance according to the formula 2^−Ct/2^−Ct(18S).

SSc fibroblasts [5] = test: In vitro TGFβ1 stimulation of SSc dermal fibroblasts, Western blotting of pSMAD3 and pERK1/2; format: cell-based, human
Procedure: as §2
Before lysate harvest, cells were washed with pre-warmed ([…]) 1×PBS (Gibco®). […] The relative intensities were measured using LiCor Odyssey software. […]

T1 sequence (P06756 31-889 limits assumed): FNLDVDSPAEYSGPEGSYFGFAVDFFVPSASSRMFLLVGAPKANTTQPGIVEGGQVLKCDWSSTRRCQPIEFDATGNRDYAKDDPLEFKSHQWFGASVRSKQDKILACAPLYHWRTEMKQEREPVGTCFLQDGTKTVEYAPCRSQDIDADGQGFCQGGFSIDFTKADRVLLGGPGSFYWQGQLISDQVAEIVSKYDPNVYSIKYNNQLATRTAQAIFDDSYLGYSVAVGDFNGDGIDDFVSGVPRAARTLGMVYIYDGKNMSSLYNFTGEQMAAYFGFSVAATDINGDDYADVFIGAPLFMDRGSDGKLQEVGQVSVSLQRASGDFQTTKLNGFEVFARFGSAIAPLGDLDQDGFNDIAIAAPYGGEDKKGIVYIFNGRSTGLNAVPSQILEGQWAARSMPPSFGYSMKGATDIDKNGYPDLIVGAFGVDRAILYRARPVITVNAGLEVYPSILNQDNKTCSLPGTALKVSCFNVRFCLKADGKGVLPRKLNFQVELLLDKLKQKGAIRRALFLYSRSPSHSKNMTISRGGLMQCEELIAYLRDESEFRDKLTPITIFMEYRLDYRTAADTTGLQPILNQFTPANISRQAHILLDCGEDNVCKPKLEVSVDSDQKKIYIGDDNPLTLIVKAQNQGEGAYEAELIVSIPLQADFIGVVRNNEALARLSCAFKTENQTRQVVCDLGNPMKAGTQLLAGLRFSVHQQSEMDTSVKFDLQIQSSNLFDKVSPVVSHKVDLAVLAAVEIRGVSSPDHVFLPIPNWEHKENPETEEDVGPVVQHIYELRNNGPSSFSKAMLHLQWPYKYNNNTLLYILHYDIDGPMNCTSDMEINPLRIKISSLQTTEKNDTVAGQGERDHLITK
T1 sequence (P06756 891-1048 partner limits assumed): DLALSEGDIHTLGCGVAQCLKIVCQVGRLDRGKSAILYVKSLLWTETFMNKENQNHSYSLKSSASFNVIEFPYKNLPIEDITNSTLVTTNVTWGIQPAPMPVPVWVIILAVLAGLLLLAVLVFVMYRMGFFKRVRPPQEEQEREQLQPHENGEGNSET
T1 sequence (P05106 27-788): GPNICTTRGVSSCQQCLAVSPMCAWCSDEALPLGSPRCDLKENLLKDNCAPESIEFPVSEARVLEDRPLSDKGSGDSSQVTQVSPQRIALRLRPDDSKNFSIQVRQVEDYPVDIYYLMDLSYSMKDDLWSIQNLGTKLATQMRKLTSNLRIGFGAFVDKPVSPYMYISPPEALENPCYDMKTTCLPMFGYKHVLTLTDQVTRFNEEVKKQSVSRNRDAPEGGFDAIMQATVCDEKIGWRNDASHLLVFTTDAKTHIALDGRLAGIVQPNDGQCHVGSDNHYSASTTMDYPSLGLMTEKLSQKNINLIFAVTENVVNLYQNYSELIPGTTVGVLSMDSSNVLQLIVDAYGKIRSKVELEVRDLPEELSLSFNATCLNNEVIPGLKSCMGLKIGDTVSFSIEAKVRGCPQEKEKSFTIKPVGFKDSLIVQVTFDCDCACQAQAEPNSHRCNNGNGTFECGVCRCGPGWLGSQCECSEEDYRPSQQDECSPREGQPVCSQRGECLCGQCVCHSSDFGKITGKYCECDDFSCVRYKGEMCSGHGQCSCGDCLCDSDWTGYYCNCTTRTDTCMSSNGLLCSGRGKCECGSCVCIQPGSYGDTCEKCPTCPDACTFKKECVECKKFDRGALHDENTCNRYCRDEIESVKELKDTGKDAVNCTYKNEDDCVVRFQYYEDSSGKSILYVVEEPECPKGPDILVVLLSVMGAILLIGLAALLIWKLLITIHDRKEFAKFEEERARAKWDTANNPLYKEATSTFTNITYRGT

Row | SMILES | WOW-1 immunoreactivity [1] | expression of miR-29a (SSc fibroblasts [4]) | expression of type IA2 and III collagen genes (SSc fibroblasts [4]) | further results
1 | O=C(O)CN(CCN(CC(=O)O)CC(=O)O)CC(=O)O [EDTA, Ethylenediaminetetraacetic acid] | reduced immunoreactivity |  |  | 
2 | [Cl][Mn][Cl] [MnCl2] | increased immunoreactivity |  |  | 
3 | COc1cc(F)c(F)c(Nc2ccc(I)cc2F)c1NS(=O)(=O)C1(C[C@H](O)CO)CC1 [RDEA119] |  |  |  | skin stiffness [2]: prevents skin stiffness; dermal collagen accumulation [3]: prevents; loss of subcutaneous fat [3]: prevents
4 | Fc1ccc(Cl)cc1-c1nc(Nc2ccncc2)c2nccnc2n1 [SD208] |  | increased expression of miR-29a, this finding did not reach significance; also recorded: normalized | normalized | ERK1/2 activation (pERK1/2) in response to TGFβ1 (SSc fibroblasts [5]; 2 ng/mL TGFβ1, 5 minutes, antibodies added 48 hours before, SD208 1 μM 6 hours prior): inhibited; also recorded: sensitive; Smad3 phosphorylation (pSMAD3) in response to TGFβ1 (SSc fibroblasts [5]; 2 ng/mL TGFβ1, SD208 1 μM 6 hours prior): sensitive
5 | N#CC(=C(/N)Sc1ccccc1N)/C(C#N)=C(\N)Sc1ccccc1N [U0126] |  | increased miR-29a levels; also recorded: increases miR-29a expression | reduced collagen expression; also recorded: reduces type IA2 and III collagen expression | 

From patent US20160222122A1, “INTEGRIN-MODULATING THERAPIES FOR TREATING FIBROTIC DISEASE” (The Johns Hopkins University, priority 2013, published 2016)
